Laboratory results: patent US9776991B2, “Thienomethylpiperazine derivatives as inhibitors of soluble epoxide hydrolase” (SANOFI, priority 2013, dated 2017)
Structures can show the parent of a compound that is named as a salt.

Molecular target: recombinant sEH (soluble epoxide hydrolase, EPHX2) (Homo sapiens (Human), UniProt P34913)
Test: biochemical fluorometric sEH inhibition assay with Phome substrate
Conditions: recombinant sEH purified from Sf9 insect cells, 2 nM sEH, 5 μM Phome, 60 minutes at 30° C.
Protocol: Compounds were tested in a biochemical screening assay using recombinant sEH purified from Sf9 insect cells and an artificial substrate, (3-phenyl-oxiranyl)-acetic acid cyano-(6-methoxy-naphtalen-2-yl)-methyl ester, Phome. The biochemical assay was performed in analogy to a fluorometric described in the literature (P. D. Jones et al., Anal. Biochem. 2005, 343, 66-75). The assay principle bases on the sEH-catalyzed hydrolysis of an artificial α-cyano-ester substrate. O-deacetylation liberates a cyanohydrin intermediate that rapidly decomposes to the highly fluorescent 6-methoxy-2-naphtaldehyde. To discriminate sample autofluorescence, the assay was carried out as a kinetic measurement with two time points. The first measurement is performed immediately before addition of the substrate and the […] measurement is done after completion of the assay. The assay format is either in 96- or in 384-well format.
Details of the assay using a 96-well plate format are described below. 40 μl recombinant sEH enzyme and 5 μl test compound are pre-incubated for 15 minutes at 30° C. Following pre-incubation, the reaction is started by addition of 5 μl Phome. The assay mixture containing 2 nM final sEH concentration, test compound ranging in a concentration from 0.0001-10 μM and 5 μM Phome is incubated for 60 minutes at 30° C.
Fluorescence is measured with any suitable detector for instance a TECAN Safire or Tecan Ultra at […]. % inhibition of recombinant sEH activity is used for calculation of corresponding IC50 values as illustrated and described in the examples.
The NCBI gene bank reference sequence with the accession number NM_001979 for EPHX2/sEH was applied for recombinant protein production:
The following commercially available materials have been used: • Incubation reagent: 25 mM Hepes (Sigma-Aldrich, Cat. No H-3375), 0.01% bovine albumin (Sigma-Aldrich Cat. No PA9205) • Substrate: 3-Phenyl-oxiranyl)-acetic acid cyano-(6-methoxy-naphtalen-2-yl)-methyl ester, Phome (Biozol Cat. No 10003134) • Microtiter plates: 96-well plates (Greiner Cat. No 655180; Costar Cat. No 3915)

Sequence of recombinant sEH (soluble epoxide hydrolase, EPHX2) (P34913 whole entry): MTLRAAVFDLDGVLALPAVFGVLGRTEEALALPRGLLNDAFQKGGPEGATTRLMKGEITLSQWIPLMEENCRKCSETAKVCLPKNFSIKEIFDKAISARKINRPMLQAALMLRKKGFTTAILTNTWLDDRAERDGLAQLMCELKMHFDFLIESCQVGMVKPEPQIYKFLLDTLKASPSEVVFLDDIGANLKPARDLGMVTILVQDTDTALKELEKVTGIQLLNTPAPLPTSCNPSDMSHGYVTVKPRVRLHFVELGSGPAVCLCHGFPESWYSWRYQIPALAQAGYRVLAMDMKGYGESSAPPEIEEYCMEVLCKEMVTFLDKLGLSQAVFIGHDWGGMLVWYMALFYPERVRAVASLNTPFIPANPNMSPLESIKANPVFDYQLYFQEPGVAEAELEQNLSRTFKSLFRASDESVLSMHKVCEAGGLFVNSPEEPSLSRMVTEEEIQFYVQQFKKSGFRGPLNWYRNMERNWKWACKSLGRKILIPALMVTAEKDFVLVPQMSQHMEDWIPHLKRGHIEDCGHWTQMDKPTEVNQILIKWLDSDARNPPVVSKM

| IC50 | Compound | IC50 (trifluoroacetate) |
| --- | --- | --- |
| 0.906 nM | COc1cc(CNC(=O)c2ccc(CN3CCN(C(=O)c4c(C)cc(=O)oc4C)CC3)s2)ccn1 [Example 34] |  |
| 0.916 nM | Cc1cc(=O)oc(C)c1C(=O)N1CCN(Cc2ccc(C(=O)NCc3ccccc3OC(F)(F)F)s2)CC1 [Example 35] |  |
| 0.906 nM | Cc1cc(=O)oc(C)c1C(=O)N1CCN(Cc2ccc(C(=O)NCc3ccccc3C(F)(F)F)s2)CC1 [Example 36] |  |
| 0.929 nM | O=C(NCc1ccccc1OC(F)(F)F)c1ccc(CN2CCN(C(=O)C3(O)CC3)CC2)s1 [Example 37] |  |
| 0.803 nM | O=C(NCc1ccccc1OC(F)(F)F)c1ccc(CN2CCN(C3CCCC3)C(=O)C2)s1 [Example 38] |  |
| 2.75 nM | Cc1cncc(N2CCN(Cc3ccc(C(=O)NCc4ccccc4OC(F)(F)F)s3)CC2)n1 [Example 39] |  |
| 2.75 nM | COc1cc(CNC(=O)c2ccc(CN3CCN(C(=O)C4CC(=O)OC4(C)C)CC3)s2)ccn1 (stereo not shown) [Example 40] |  |
| 2.75 nM | CN[C@H](C(=O)N1CCN(Cc2ccc(C(=O)NCc3ccccc3OC(F)(F)F)s2)CC1)[C@@H](C)O [Example 41] |  |
| 2.74 nM | O=C(NCc1ccc(Cl)cc1Cl)c1ccc(CN2CCN(C(=O)c3ccc(F)cc3Cl)CC2)s1 [Example 43] |  |
| 2.72 nM | CN1CC(C(=O)N2CCN(Cc3ccc(C(=O)NCc4ccccc4OC(F)(F)F)s3)CC2)CC1=O (stereo not shown) [Example 44] |  |
| 2.67 nM | O=C(NCc1ccccc1C(F)(F)F)c1ccc(CN2CCN(C(=O)c3nccc4ccccc34)CC2)s1 [Example 45] |  |
| 2.69 nM | O=C(NCc1ccccc1OC(F)(F)F)c1ccc(CN2CCN(c3nccs3)C(=O)C2)s1 [Example 47] |  |
| 2.69 nM | NC(CF)C(=O)N1CCN(Cc2ccc(C(=O)NCc3ccc(Cl)cc3Cl)s2)CC1 (stereo not shown) [Example 48] |  |
| 2.68 nM | O=C(NCc1ccccc1OC(F)(F)F)c1ccc(CN2CCN(C(=O)C3COCCN3)CC2)s1 (stereo not shown) [Example 49] |  |
| 2.67 nM | O=C(NCc1ccc(Cl)cc1Cl)c1ccc(CN2CCN(c3ccc(O)nn3)CC2)s1 [Example 50] |  |
| 0.994 nM | Cn1cccc1C(=O)N1CCN(Cc2ccc(C(=O)NCc3ccccc3C(F)(F)F)s2)CC1 [Example 51] |  |
| 0.955 nM | Cn1ncc(Br)c1C(=O)N1CCN(Cc2ccc(C(=O)NCc3ccccc3C(F)(F)F)s2)CC1 [Example 52] |  |
| 1.02 nM | CCOc1ccccc1C(=O)N1CCN(Cc2ccc(C(=O)NCc3ccccc3C(F)(F)F)s2)CC1 [Example 53] |  |
| 1.05 nM | O=C(NCc1ccccc1OC(F)(F)F)c1ccc(CN2CCN(C(=O)C3CCOC3)CC2)s1 (stereo not shown) [Example 55] |  |
| 1.01 nM | COc1ccc(CNC(=O)c2ccc(CN3CCN(CC(F)(F)F)C(=O)C3)s2)c(OC(F)(F)F)c1 [Example 56] |  |
| 1.13 nM | COc1ncccc1C(=O)N1CCN(Cc2ccc(C(=O)NCc3ccccc3C(F)(F)F)s2)CC1 [Example 57] |  |
| 1.17 nM | O=C(NCc1ccc(Cl)cc1Cl)c1ccc(CN2CCN(C(=O)C3(c4ccccc4)CC3)CC2)s1 [Example 58] |  |
| 1.15 nM | Cc1cc(=O)oc(C)c1C(=O)N1CCN(Cc2ccc(C(=O)NCc3ccc(Cl)cc3Cl)s2)CC1 [Example 59] |  |
| 1.1 nM | Cc1cc(=O)oc(C)c1C(=O)N1CCN(Cc2ccc(C(=O)NCc3ccc(Cl)cc3F)s2)CC1 [Example 60, 5-[4-(2,4-Dimethyl-6-oxo-6H-pyran-3-carbonyl)-piperazin-1-ylmethyl]-thiophene-2-carboxylic acid 4-chloro-2-fluoro-benzylamide] |  |
| 1.18 nM | CC(O)C(=O)N1CCN(Cc2ccc(C(=O)NCc3ccc(C#N)cc3Cl)s2)CC1 (stereo not shown) [Example 61] |  |
| 1.14 nM | CC1(C)C(=O)NCCN1Cc1ccc(C(=O)NCc2ccccc2OC(F)(F)F)s1 [Example 62] |  |
| 1.21 nM | CC(C(=O)N1CCN(Cc2ccc(C(=O)NCc3ccc(Cl)cc3Cl)s2)CC1)c1ccccc1 (stereo not shown) [Example 63] |  |

More lines, now with the values behind:

| Compound | IC50 | IC50 (trifluoroacetate) |
| --- | --- | --- |
| C[C@@H](O)C(=O)N1CCN(Cc2ccc(C(=O)N(Cc3ccccc3)OC(F)(F)F)s2)CC1 [Example 1] | 0.122 nM |  |
| Cc1noc(C)c1C(=O)N1CCN(Cc2ccc(C(=O)NCc3ccc(Cl)cc3Cl)s2)CC1 [Example 2] | 0.502 nM |  |
| O=C(NCc1ccccc1C(F)(F)F)c1ccc(CN2CCN(C(=O)Cc3ccccc3Cl)CC2)s1 [Example 3] | 0.407 nM |  |
| O=C(NCc1ccccc1C(F)(F)F)c1ccc(CN2CCN(C(=O)c3cccnc3)CC2)s1 [Example 4] | 0.168 nM |  |
| CC(C)CCNC(=O)c1ccc(CN2CCN(C(=O)[C@@H]3C[C@H]3c3ccccc3)CC2)s1 [Example 5] | 0.432 nM |  |
| O=C(NCc1ccccc1C(F)(F)F)c1ccc(CN2CCN(C(=O)C3Cc4ccccc43)CC2)s1 (stereo not shown) [Example 6] | 0.528 nM |  |
| COc1ncccc1C(=O)N1CCN(Cc2ccc(C(=O)NCc3ccc(Cl)cc3Cl)s2)CC1 [Example 7] | 0.524 nM |  |
| O=C(NCc1ccc(Cl)cc1Cl)c1ccc(CN2CCN(C(=O)c3cnn4ccccc34)CC2)s1 [Example 8] | 0.512 nM |  |
| COc1ccc(CNC(=O)c2ccc(CN3CCN(C(=O)c4c(C)cc(=O)oc4C)CC3)s2)c(C(F)(F)F)c1 [Example 9] | 3.06 nM |  |
| Cc1cc(=O)oc(C)c1C(=O)N1CCN(Cc2ccc(C(=O)NCCC(C)(C)C)s2)CC1 [Example 10] | 2.94 nM |  |
| Cc1cc(=O)oc(C)c1C(=O)N1CCN(Cc2ccc(C(=O)NCCCn3nc(C(F)(F)F)cc3C)s2)CC1 [Example 11] | 2.95 nM |  |
| Cc1c(C(=O)N2CCN(Cc3ccc(C(=O)NCCC(C)C)s3)CC2)oc2ccc(Br)cc12 [Example 12] | 25.4 nM |  |
| CC(C)CCNC(=O)c1ccc(CN2CCN(C(=O)c3ccnn3C(F)F)CC2)s1 [Example 13] | 2.98 nM |  |
| CNC(=O)c1cccnc1N1CCN(Cc2ccc(C(=O)NCc3ccc(Cl)cc3Cl)s2)CC1 [Example 14] | 2.93 nM |  |
| O=C(NCc1ccccc1C(F)(F)F)c1ccc(CN2CCN(C(=O)c3ccc4nccn4c3)CC2)s1 [Example 15] | 0.604 nM |  |
| O=C(NCc1ccccc1C(F)(F)F)c1ccc(CN2CCN(C(=O)c3ccccn3)CC2)s1 [Example 16] | 0.534 nM |  |
| O=C(NCc1ccccc1C(F)(F)F)c1ccc(CN2CCN(C(=O)COc3ccccc3)CC2)s1 [Example 17] | 0.699 nM |  |

| Compound | IC50 | IC50 (trifluoroacetate) |
| --- | --- | --- |
| O=C(NCc1ccccc1C(F)(F)F)c1ccc(CN2CCN(C(=O)c3cscc3Br)CC2)s1 [Example 18] | 0.678 nM |  |
| O=C(NCc1ccccc1OC(F)(F)F)c1ccc(CN2CCN(C(=O)N3CCCC3)CC2)s1 [Example 19] | 0.695 nM |  |
| CC(O)C(=O)N1CCN(Cc2ccc(C(=O)NCc3ccc(Cl)cc3Cl)s2)CC1 (stereo not shown) [Example 20] | 0.539 nM |  |
| COCc1cc(O)nc(N2CCN(Cc3ccc(C(=O)NCc4ccc(Cl)cc4Cl)s3)CC2)n1 [Example 21] | 2.9 nM |  |
| COc1ccc(CNC(=O)c2ccc(CN3CCN(c4ccc(O)nn4)CC3)s2)c(OC(F)(F)F)c1 [Example 22] | 2.8 nM |  |
| Cc1cc(=O)oc(C)c1C(=O)N1CCN(Cc2ccc(C(=O)NCC3CCc4ccccc43)s2)CC1 (stereo not shown) [Example 23] | 2.75 nM |  |
| Cn1nc(C(C)(C)C)cc1C(=O)N1CCN(Cc2ccc(C(=O)NCc3ccccc3C(F)(F)F)s2)CC1 [Example 25] | 2.76 nM |  |
| Cc1cnc(C)c(N2CCN(Cc3ccc(C(=O)NCc4ccccc4OC(F)(F)F)s3)CC2)n1 [Example 26] | 2.75 nM |  |
| O=C(NCc1ccc(Cl)cc1Cl)c1ccc(CN2CCN(C3CCC3)CC2)s1 [Example 27] | 0.803 nM |  |
| Cc1cc(C(=O)NCCC(C)(C)C)sc1CN1CCN(C(=O)c2c(C)cc(=O)oc2C)CC1 [Example 28] | 0.803 nM |  |
| Cc1cc(C(=O)NCc2cccc3c2OCCO3)sc1CN1CCN(C(=O)c2c(C)cc(=O)oc2C)CC1 [Example 29] | 0.803 nM |  |
| COc1cc(CNC(=O)c2ccc(CN3CCN(C(=O)[C@H](O)C(C)C)CC3)s2)ccn1 [Example 30, 5-[4-((R)-2-Hydroxy-3-methyl-butyryl)-piperazin-1-ylmethyl]-thiophene-2-carboxylic acid (2-methoxy-pyridin-4-ylmethyl)-amide] | 0.803 nM |  |
| O=C(NCc1ccccc1C(F)(F)F)c1ccc(CN2CCN(C(=O)Cc3cccc(C(F)(F)F)c3)CC2)s1 [Example 31] | 0.758 nM |  |
| COc1ccc(CNC(=O)c2ccc(CN3CCN(C(=O)C(C)O)CC3)s2)c(OC(F)(F)F)c1 (stereo not shown) [Example 32] | 0.756 nM |  |
| Cc1cc(=O)oc(C)c1C(=O)N1CCN(Cc2ccc(C(=O)NCc3ccc(C(F)(F)F)cc3)s2)CC1 [Example 33] | 0.906 nM |  |
| O=C(NCc1ccc(Cl)cc1Cl)c1ccc(CN2CCN(C(=O)COc3ccccc3)CC2)s1 [Example 42] | 2.7 nM |  |
| CC(O)C(=O)N1CCN(Cc2ccc(C(=O)NCc3ccccc3OC(F)(F)F)s2)CC1 (stereo not shown) [Example 54, 5-[4-(2-Hydroxy-propionyl)-piperazin-1-ylmethyl]-thiophene-2-carboxylic acid 2-trifluoromethoxy-benzylamide, trifluoroacetate] |  | 0.976 nM |
